Test results published in ChEMBL document CHEMBL5537162, “Development of Antibacterial Peptides with Membrane Disruption and Folate Pathway Inhibitory Activities against Methicillin-Resistant Staphylococcus aureus” (J Med Chem, 2024).
≈ marks a conversion by molar mass, not a printed value. Calls of active or inactive are those of the source. The calls are words filed in the database; no cut-off is given here.

How the values were obtained:
Staphylococcus aureus [1] = assay: Antibacterial activity against methicillin-resistant Staphylococcus aureus 18908 assessed as bacterial growth inhibition incubated for 24 hrs by CLSI based micro-broth dilution assay; type: functional
Staphylococcus aureus [2] = assay: Antibacterial activity against methicillin-resistant Staphylococcus aureus 18466 assessed as bacterial growth inhibition incubated for 24 hrs by CLSI based micro-broth dilution assay; type: functional
Staphylococcus aureus [3] = assay: Antibacterial activity against methicillin-resistant Staphylococcus aureus 18475 assessed as bacterial growth inhibition incubated for 24 hrs by CLSI based micro-broth dilution assay; type: functional
Staphylococcus aureus [4] = assay: Antibacterial activity against methicillin-resistant Staphylococcus aureus 18567 assessed as bacterial growth inhibition incubated for 24 hrs by CLSI based micro-broth dilution assay; type: functional
Staphylococcus aureus [5] = assay: Antibacterial activity against methicillin-resistant Staphylococcus aureus 18858 assessed as bacterial growth inhibition incubated for 24 hrs by CLSI based micro-broth dilution assay; type: functional
Staphylococcus aureus [6] = assay: Antibacterial activity against methicillin-resistant Staphylococcus aureus 18878 assessed as bacterial growth inhibition incubated for 24 hrs by CLSI based micro-broth dilution assay; type: functional
Staphylococcus aureus [7] = assay: Antibacterial activity against methicillin-resistant Staphylococcus aureus 19047 assessed as bacterial growth inhibition incubated for 24 hrs by CLSI based micro-broth dilution assay; type: functional
Staphylococcus aureus [8] = assay: Antibacterial activity against methicillin-resistant Staphylococcus aureus 19498 assessed as bacterial growth inhibition incubated for 24 hrs by CLSI based micro-broth dilution assay; type: functional
Staphylococcus aureus [9] = assay: Antibacterial activity against methicillin-resistant Staphylococcus aureus 19167 assessed as bacterial growth inhibition incubated for 24 hrs by CLSI based micro-broth dilution assay; type: functional
Staphylococcus aureus [10] = assay: Antibacterial activity against methicillin-resistant Staphylococcus aureus 19423 assessed as bacterial growth inhibition incubated for 24 hrs by CLSI based micro-broth dilution assay; type: functional
Staphylococcus aureus [11] = assay: Antibacterial activity against Methicillin-resistant Staphylococcus aureus infected in ICR mouse skin infection model assessed as reduction in skin abscess volume; type: functional, organism-based
Staphylococcus aureus [12] = assay: Antibacterial activity against methicillin-resistant Staphylococcus aureus assessed as bacterial growth inhibition incubated for 24 hrs by CLSI based micro-broth dilution assay; type: functional
[13] = (§1) Hemolytic activity in mouse RBC assessed as hemolysis incubated for 1 hrs by spectrophotometric analysis; type: toxicity, cell-based, Erythrocyte; conditions: mouse red blood cells (erythrocytes)
Erythrocyte = assay: as §1; type: toxicity, cell-based; conditions: erythrocyte, 1 h
[14] = Hemolytic activity in mouse RBC assessed as hemolysis at 320 uM incubated for 1 hrs by spectrophotometric analysis relative to control; type: toxicity, cell-based, Erythrocyte; conditions: mouse red blood cells (erythrocytes), read-out: %max
[15] = Antiproliferative activity against HEK293T cells assessed as reduction in cell viability measured for 48 hrs by MTT assay; type: toxicity, cell-based, HEK-293T; conditions: human
[16] = Selectivity index, ratio of IC50 for antiproliferative activity against HEK293T cells assessed as reduction in cell viability to MIC for antibacterial activity against methicillin-resistant Staphylococcus aureus assessed as bacterial growth inhibition; type: toxicity, cell-based; conditions: human, read-out: Selectivity Index
Staphylococcus aureus [17] = assay: Antibacterial activity against Methicillin-resistant Staphylococcus aureus infected in ICR mouse skin infection model assessed as reduction in bacterial content at 5 mg/kg, sc measured upto 10 days; type: functional, organism-based; conditions: time <= 10.0 day
Staphylococcus aureus [18] = assay: Antibacterial activity against Methicillin-resistant Staphylococcus aureus infected in ICR mouse skin infection model assessed as reduction in inflammatory infiltration at 5 mg/kg, sc by H and E staining based microscopic analysis; type: functional, organism-based
HEK-293T = assay: Antiproliferative activity against HEK293T cells assessed as reduction in cell viability at 2.5 to 320 uM measured for 48 hrs by MTT assay relative to control; type: toxicity, cell-based; conditions: human, dose 2.5-320 µM

Row | Compound | MIC (Staphylococcus aureus [1]) | MIC (Staphylococcus aureus [2]) | MIC (Staphylococcus aureus [3]) | MIC (Staphylococcus aureus [4]) | MIC (Staphylococcus aureus [5]) | MIC (Staphylococcus aureus [6]) | MIC (Staphylococcus aureus [7]) | MIC (Staphylococcus aureus [8]) | MIC (Staphylococcus aureus [9]) | MIC (Staphylococcus aureus [10]) | Activity (Staphylococcus aureus [11]) | MIC (Staphylococcus aureus [12]) | HC50 at 1 h [13] | HC10 (Erythrocyte) | hemolysis at 1 h, 320 µM [14] | IC50 at 48 h [15] | selectivity ratio [16] | Activity (Staphylococcus aureus [17]) | Activity (Staphylococcus aureus [18]) | Activity (HEK-293T)
1 | COc1cccc(OC)c1C(=O)N[C@@H]1C(=O)N2[C@@H]1SC(C)(C)[C@@H]2C(=O)O [METHICILLIN] | > 480 µM | > 480 µM | > 480 µM | > 480 µM | > 480 µM | > 480 µM | > 480 µM | > 480 µM | > 480 µM | > 480 µM | Active |  |  |  |  |  |  |  |  | 
2 | Cc1onc(-c2ccccc2)c1C(=O)N[C@@H]1C(=O)N2[C@@H]1SC(C)(C)[C@@H]2C(=O)O [OXACILLIN] | > 480 µM | > 480 µM | > 480 µM | > 480 µM | > 480 µM | > 480 µM | > 480 µM | > 480 µM | > 480 µM | > 480 µM |  |  |  |  |  |  |  |  |  | 
3 | CN[C@H](CC(C)C)C(=O)N[C@H]1C(=O)N[C@@H](CC(N)=O)C(=O)N[C@H]2C(=O)N[C@H]3C(=O)N[C@H](C(=O)N[C@H](C(=O)O)c4cc(O)cc(O)c4-c4cc3ccc4O)[C@H](O)c3ccc(c(Cl)c3)Oc3cc2cc(c3O[C@@H]2O[C@H](CO)[C@@H](O)[C@H](O)[C@H]2O[C@H]2C[C@](C)(N)[C@H](O)[C@H](C)O2)Oc2ccc(cc2Cl)[C@H]1O [VANCOMYCIN] | 1 µM (≈ 1.45 µg/mL) | 1 µM (≈ 1.45 µg/mL) | 1 µM (≈ 1.45 µg/mL) | 1 µM (≈ 1.45 µg/mL) | 1 µM (≈ 1.45 µg/mL) | 1 µM (≈ 1.45 µg/mL) | 1 µM (≈ 1.45 µg/mL) | 1 µM (≈ 1.45 µg/mL) | 1 µM (≈ 1.45 µg/mL) | 1 µM (≈ 1.45 µg/mL) |  | 1 µM (≈ 1.45 µg/mL) | > 320 µM | > 320 µM | 6.24% | > 320 µM | 320 | Active | Active | 
4 | H-KARVAVKVIRFLYKAW-NH2 |  |  |  |  |  |  |  |  |  |  |  | 12 µM | > 320 µM | > 320 µM | 6.36% | > 320 µM | 26.7 |  |  | 
5 | H-KARVSVKVTASLSKAW-NH2 |  |  |  |  |  |  |  |  |  |  |  | > 48 µM | > 320 µM | > 320 µM | 7.57% | > 320 µM | 6.67 |  |  | 
6 | H-KASVSVKVTASLSKAW-NH2 |  |  |  |  |  |  |  |  |  |  |  | > 48 µM | > 320 µM | > 320 µM | 7.51% | > 320 µM | 6.67 |  |  | 
7 | H-KASVSVKVTASLSKAWTNSQ-NH2 |  |  |  |  |  |  |  |  |  |  |  | > 48 µM | > 320 µM | > 320 µM | 6.24% | > 320 µM | 6.67 |  |  | 
8 | H-KGVIFAKASVSVKVTASLSKAWTNSQ-NH2 |  |  |  |  |  |  |  |  |  |  |  | > 48 µM | > 320 µM | > 320 µM | 5.92% | > 320 µM | 6.67 |  |  | 
9 | H-LFRVVRRVVRFIRRAA-NH2 |  |  |  |  |  |  |  |  |  |  |  | 12 µM | > 320 µM | > 320 µM | 7.53% | > 320 µM | 26.7 |  |  | 
10 | H-LRPLARRPIRRIRRAW-NH2 |  |  |  |  |  |  |  |  |  |  |  | > 48 µM | > 320 µM | > 320 µM | 8.74% | > 320 µM | 6.67 |  |  | 
11 | H-LRRFARRLIRRIRRAW-NH2 |  |  |  |  |  |  |  |  |  |  |  | 12 µM | > 320 µM | > 320 µM | 7.16% | > 320 µM | 26.7 |  |  | 
12 | H-RARVAVRVIRFLYRAW-NH2 |  |  |  |  |  |  |  |  |  |  |  | 12 µM | > 320 µM | 320 µM | 9.34% | > 320 µM | 26.7 |  |  | 
13 | H-RARVRVRVRRFLRRRW-NH2 |  |  |  |  |  |  |  |  |  |  |  | > 48 µM | > 320 µM | 320 µM | 11.3% | > 320 µM | 6.67 |  |  | 
14 | H-RRFFVRRVFFRRRRFF-OH |  |  |  |  |  |  |  |  |  |  |  | 48 µM | > 320 µM | 41.05 µM | 30.1% | > 320 µM | 6.67 |  |  | 59.65%
15 | H-RRPLARPLIRFIRRPW-NH2 |  |  |  |  |  |  |  |  |  |  |  | > 48 µM | > 320 µM | > 320 µM | 7.57% | > 320 µM | 6.67 |  |  | 
16 | H-RRRVARRVFWFVRRAV-NH2 |  |  |  |  |  |  |  |  |  |  |  | 24 µM | > 320 µM | > 320 µM | 8.25% | > 320 µM | 13.3 |  |  | 
17 | H-RRRVARRVIRFIRRAW-NH2 |  |  |  |  |  |  |  |  |  |  |  | 12 µM | > 320 µM | 320 µM | 10.2% | > 320 µM | 26.7 |  |  | 
18 | H-RRRWARRIIWIIRRAW-NH2 |  |  |  |  |  |  |  |  |  |  |  | 24 µM | > 320 µM | > 320 µM | 8.66% | > 320 µM | 13.3 |  |  | 
19 | H-RRWIARRAIWRRRRWW-NH2 |  |  |  |  |  |  |  |  |  |  |  | 48 µM | > 320 µM | 92.35 µM | 17.2% | > 320 µM | 6.67 |  |  | 58.94%
20 | H-RRWWWRRWWWRRRRWW-NH2 |  |  |  |  |  |  |  |  |  |  |  | 48 µM | > 320 µM | 25.91 µM | 51.3% | > 320 µM | 6.67 |  |  | 55.74%
21 | H-WARIARRAIRAWRRWW-NH2 |  |  |  |  |  |  |  |  |  |  |  | 12 µM | > 320 µM | 75.19 µM | 20.1% | > 320 µM | 26.7 |  |  | 62.65%
22 | H-WRWWRRRRWWRWRRWW-NH2 |  |  |  |  |  |  |  |  |  |  |  | 48 µM | > 320 µM | 33.2 µM | 40.3% | > 320 µM | 6.67 |  |  | 59.04%
